Assays:
rat PTH1R = biological target: T1, rat PTH1R (Rattus norvegicus, UniProt P25961); assay: In vitro cAMP signaling activity via the rat PTH1R (LLC-PK46_RATO_PTH1R cells); type: cell-based; settings: LLC-PK46_RATO_PTH1R cells overexpressing rat PTH1R
T1 construct: expressed in transfected cells
T1 sequence (P25961 27-591): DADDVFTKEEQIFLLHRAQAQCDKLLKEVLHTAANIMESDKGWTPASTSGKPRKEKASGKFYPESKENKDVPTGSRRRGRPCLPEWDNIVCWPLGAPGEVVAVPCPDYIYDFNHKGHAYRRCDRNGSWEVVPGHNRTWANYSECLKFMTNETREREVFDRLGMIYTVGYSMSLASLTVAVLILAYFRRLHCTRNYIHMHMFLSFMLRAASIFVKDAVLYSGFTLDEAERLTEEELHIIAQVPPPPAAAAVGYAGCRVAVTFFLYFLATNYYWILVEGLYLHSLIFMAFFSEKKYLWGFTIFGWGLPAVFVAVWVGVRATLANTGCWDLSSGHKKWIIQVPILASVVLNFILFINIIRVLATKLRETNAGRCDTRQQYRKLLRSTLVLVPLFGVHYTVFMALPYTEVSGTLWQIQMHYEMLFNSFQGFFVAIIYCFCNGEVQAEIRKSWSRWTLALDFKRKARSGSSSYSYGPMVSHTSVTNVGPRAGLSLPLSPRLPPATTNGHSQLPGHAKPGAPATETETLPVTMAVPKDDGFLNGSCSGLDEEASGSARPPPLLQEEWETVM
Description: Instead of HKRK-B7 cells, LLC-PK46_RATO_PTH1R cells overexpressing rat PTH1R, which were established at Chugai Pharmaceutical, were used to take measurements in a similar manner to Reference Test Example 1.

human PTH1R = biological target: T2, human PTH1R (Homo sapiens, UniProt Q03431); assay: In vitro cAMP signal activity via the human PTH1R (HKRK-B7 cells); type: cell-based; settings: concentration at 20% cAMP signaling activity, human PTH(1-34) at 100 nM = 100%
T2 construct: expressed in transfected cells; host or cells: HKRK-B7 (LLC-PK1 porcine kidney cells stably expressing human PTH1R)
T2 sequence (Q03431 27-593): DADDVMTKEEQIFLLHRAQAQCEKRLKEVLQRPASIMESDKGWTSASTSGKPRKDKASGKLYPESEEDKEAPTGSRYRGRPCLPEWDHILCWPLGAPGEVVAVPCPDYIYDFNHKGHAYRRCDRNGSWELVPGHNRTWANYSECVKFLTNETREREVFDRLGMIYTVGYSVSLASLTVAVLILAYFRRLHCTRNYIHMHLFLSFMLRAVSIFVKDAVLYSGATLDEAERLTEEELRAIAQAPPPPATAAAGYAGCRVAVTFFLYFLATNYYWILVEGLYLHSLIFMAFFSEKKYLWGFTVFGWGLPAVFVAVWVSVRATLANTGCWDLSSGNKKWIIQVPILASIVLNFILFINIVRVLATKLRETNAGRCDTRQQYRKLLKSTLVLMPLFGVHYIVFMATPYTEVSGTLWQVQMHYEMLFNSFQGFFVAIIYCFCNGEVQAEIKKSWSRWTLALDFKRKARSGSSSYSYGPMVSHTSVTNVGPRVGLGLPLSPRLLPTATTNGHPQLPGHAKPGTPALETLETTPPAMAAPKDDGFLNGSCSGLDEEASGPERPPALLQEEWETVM
Description: Human PTH(1-34) and calcitonin were purchased from Peptide Institute, Inc. (Osaka, Japan), dissolved in 10 mM acetic acid to 1 mM and stored in a −80° C. freezer.
Cells were cultured in Dulbecco's modified Eagle's medium (DMEM) supplemented with 10% fetal bovine serum (Hyclone), 100 units/ml penicillin G and 100 μg/ml streptomycin sulfate (Invitrogen Corp) at 37° C. in a humidified atmosphere containing 5% CO2.
cAMP signal transduction analysis utilized LLC-PK1 cells not expressing the PTH1R, and HKRK-B7 cells, that is, LLC-PK1 cells overexpressing the human PTH1R at 9.5×10^5 receptors/cell (Takasu et al., J. Bone. Miner. Res. 14:11-20, 1999).
HKRK-B7 or LLC-PK1 cells were seeded into a 96-well plate at 1×10^5 cells/well and incubated overnight. On the following day, 50 μl of cAMP assay buffer (DMEM, 2 mM IBMX, 0.2 mg/ml bovine serum albumin, 35 mM Hepes-NaOH, pH 7.4) containing human PTH(1-34) or each compound was added and the plate was placed in a 37° C. incubator. The cells were incubated for 20 minutes. After removing the medium, the cells were washed with 100 μl of cAMP assay buffer once. The plate was placed on dry ice powder to freeze the cells and then removed from the dry ice. The cells were lysed with 40 μl of 50 mM HCl and frozen again on dry ice. The amount of intracellular cAMP produced was measured using a commercially available cAMP EIA kit (Biotrack cAMP EIA system, GE health care).
Analyses were performed using a variable gradient S-shaped dose-response curve equation.

rat hepatocyte = assay: Metabolic stability using rat hepatocyte; type: in vitro ADME
Description: Liver cells were prepared from the liver of rats (SD, female) by a collagenase perfusion method. A compound of the Reference Examples or a Comparative Example was added, and this was incubated at 37° C. for a specified amount of time, followed by addition of a reaction-stopping solution. The concentration of the parent compound at each reaction time was measured using LC/MS/MS, and inherent clearance (μL/10^6 cells/min) was calculated from the slope of the reaction time versus residual rate.
• Cell concentration: 1×10^6 cells/mL • Compound concentration: 1 μM • Medium: Williams' medium E • Reaction time: 0, 15, 30, 60, 120, and 240 minutes • Reaction-stopping solution: acetonitrile/2-propanol (4/6, v/v)

EC20 (rat PTH1R): 500 nM
EC20 (human PTH1R): 1100 nM
rat hepatocyte metabolic stability compared to Comparative Examples 1, 2, 3, 5, and 6 (in words) (rat hepatocyte): increased
SMILES: Cc1cc(N2C(=O)NC(=O)C2(C)C)cc(C)c1CCS(=O)(=O)N1CCC2(CC1)N=C(c1ccc(OC(F)(F)F)cc1)NC2=O [Compound 7, 1-(3,5-dimethyl-4-(2-((4-oxo-2-(4-(trifluoromethoxy)phenyl)-1,3,8-triazaspiro[4.5]deca-1-en-8-yl)sulfonyl)ethyl)phenyl)-5,5-dimethylimidazolidine-2,4-dione]

Source: US9993462B2, “Hydantoin derivative-containing pharmaceutical composition” (Chugai Seiyaku Kabushiki Kaisha, priority 2014, dated 2018)
